# Publication PMC4760428 (Angewandte Chemie (International Ed. in English), 2016)
# Peptide text beside a SMILES is read from it.
# Target: WT cyclophilin (Homo sapiens, UniProt P62937)
# Experiment: FRET equilibrium binding to wild-type cyclophilin
# Sequence of WT cyclophilin (P62937 whole entry): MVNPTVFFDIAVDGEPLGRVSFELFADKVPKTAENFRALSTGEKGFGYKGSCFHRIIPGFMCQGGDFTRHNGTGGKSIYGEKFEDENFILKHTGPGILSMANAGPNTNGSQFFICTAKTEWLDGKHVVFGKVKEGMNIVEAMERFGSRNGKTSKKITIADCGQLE
smiles,measurement,value
C[C@H](NS(=O)(=O)c1cccc2c(N(C)C)cccc12)C(=O)N[C@@H](C)C(=O)N1CCC[C@H]1C(=O)N[C@@H](Cc1ccccc1)C(=O)O [WT peptide] (HELM PEPTIDE1{[CN(C)c1cccc2c(S(=O)(=O)[*:2])cccc12].A.A.P.F}$$$$V2.0),Kd,164 ± 32 µM
